Assay results published in patent US20170112792A1, “ENHANCED ATRA-RELATED COMPOUNDS DERIVED FROM STRUCTURE-ACTIVITY RELATIONSHIPS AND MODELING FOR INHIBITING PIN1” (Beth Israel Deaconess Medical Center, Inc., priority 2014, published 2017).
“Also recorded” adds a separate entry of the source. Non-standard residues stand in square brackets, D forms with d. No end group written: not given here. d(pT) = C[C@H](OP(=O)(O)O)[C@@H](N)C(=O)O; Pip = O=C(O)[C@@H]1CCCCN1

Columns and labels:
GST-Pin1 [1] = biological target: T1, GST-Pin1 (Homo sapiens, UniProt Q13526); test: fluorescence polarization (FP) pTide competition assay / FP-HTS
Excerpt: This sequence was optimized for solubility and binding to GST-PPI. […] Measurements of fluorescence polarization and fluorescence absorbance were made in black 384-well plates (Corning) using a Synergy II plate reader. Compounds were transferred to plates using a custom-built Seiko pin-transfer robot at the Institute for Chemistry and Cell Biology at Harvard Medical School. The assay can tolerate up to 10%/o DMSO.
Molecules that compete with pTide for binding to the active site, e.g., Pin1 substrates, were detected under equilibrium conditions. A Z score was used to identify and rank those molecules that were most competitive with pTide (e.g., that have higher binding affinity). A Z score is defined as Z=(x−μ)/σ, where x is a raw score, μ is the mean of the population, and σ is the standard deviation of the population. Molecules with the most negative Z scores represent those with the highest Pin1 binding affinity. The Z′ value for this assay was around 0.70 and was consistent for day-to-day performance, with a coefficient of variation in the range of 4-5%.
A lower value of Ki is indicative of higher association and, accordingly, higher affinity of the substrate to the protein.

GST-FKBP12 = GST-FKBP12 (Homo sapiens, UniProt P62942); test: chymotrypsin coupled PPlase activity assay, FKBP12; type: biochemical
GST-cyclophilin = test: chymotrypsin coupled PPlase activity assay, cyclophilin
GST-Pin1 [2] = biological target: T1, GST-Pin1; test: chymotrypsin coupled PPlase activity assay, Pin1; type: biochemical
Excerpt: where Km is the Michaelis constant for the used substrate, S is the initial concentration of the substrate in the assay, and the IC50 value is of the inhibitor.

[3] = system: vector control or Rab2A-overexpressing HMLEs; test: BFA treatment of HMLE cells (ERGIC53 staining, Erk1/2 blots); type: cell-based, human; conditions: 10 μg/ml BFA
Excerpt: To elucidate how Rab2A overexpression or its Q58H mutation activates Erk1/2, we first examined whether Rab2A co-localized with Erk1/2. HMLE cells were starved and then stimulated by EGF to induce Erk1/2 phosphorylation. […] Overexpressing Rab2A Q58H at levels similar to the endogenous level also activated and colocalized with Erk1/2 like overexpressing WT Rab2A at 3 times higher levels (FIGS. 45A and 46A). To determine where Rab2A or its Q58H mutant colocalized with Erk1/2 at the perinuclear region, we performed double immunostaining Rab2A and ERGIC53, an ER-Golgi intermediate compartment (ERGIC) marker. Both Rab2A and its Q58H mutant colocalized with Erk1/2 at the ERGIC (FIG. 45B). Thus, overexpressed Rab2A or its Q58H mutant co-localizes with Erk1/2 and promotes Erk1/2 activation at the ERGIC. To examine whether Rab2A's vesicular trafficking function is associated with Erk activation, we used brefeldin A (BFA) to block the trafficking from the ERGIC to ER because BFA dissociates ADP ribosylation factor (ARF) effectors from Golgi and ERGIC membranes, leading to block in both anterograde and retrograde transport.

[4] = system: APL cells isolated from hCG-PML-RARα transgenic mice
NB4 cells = test: APL cell differentiation in NB4 cells (Giemsa, FACS CD14/CD11b); type: cell-based, human; conditions: 72 hours
[5] = system: Pin1 and PML-RARα in NB4 cells; test: immunoblot of Pin1 and PML-RARα in APL NB4 cells; type: cell-based, human; conditions: for PML-RARα level in APL cells: 72 hours
Procedure: For immunoprecipitation and immunoblotting in the examples below, cells were polyethylenimine (PEI)- or lipofemamine-transfected with 8 μg of various plasmids, incubated in 10 cm dishes for 24 hours, and subsequently treatment with drugs as needed. […] After centrifugation at 13,000 g for 10 minutes, one tenth of the supernatant was stored as input, and the remainder was incubated 12 hours with M2 Flag agarose (Sigma). After brief centrifugation, immunoprecipitates were collected, extensively washed with the aforementioned lysis buffer twice, suspended in 2×SDS sample buffer (100 mM Tris-HCl, pH 6.8, 4% SDS, 5% β-mercaptoethanol, 20% glycerol, and 0.1% bromphenol blue), boiled for 10 minutes, and subjected to immunoblotting analysis. […] After electrophoresis, gel was transferred to nitrocellulose membranes using a semidry transfer cell. The transblotted membrane was washed twice with Tris-buffered saline containing 0.1% Tween 20 (TBST). After blocking with TBST containing 5% bovine serum albumin (BSA) for 1 hour, the membrane was incubated with the appropriate primary antibody (diluted 1:1000) in 2% BSA-containing TBST at 4° C. overnight. After incubation with the primary antibody, the membrane was washed three times with TBST for a total of 30 minutes followed by incubation with horseradish peroxidase (HRP)-conjugated goat anti-rabbit or anti-mouse IgG (diluted 1:2500) for 1 hour at room temperature. After three extensive washes with TBST for a total of 30 minutes, the immunoblots were visualized by enhanced chemiluminescence.

human APL NB4 cells = test: NB4 cell growth; type: cell-based; conditions: co-treatment with ATRA
Procedure: (§1) Absorbance was determined at 570 nm.

[6] = system: human normal and breast cancer cell lines; test: cell growth of human normal and breast cancer cell lines; type: cell-based
Procedure: as §1
To test this possibility, we chose breast cancer as a model due to the substantial oncogenic role of Pin1 in vitro and in vivo.

RAR = test: transactivation of RAR downstream target genes
[7] = cited from earlier work

T1 sequence (Q13526 whole entry): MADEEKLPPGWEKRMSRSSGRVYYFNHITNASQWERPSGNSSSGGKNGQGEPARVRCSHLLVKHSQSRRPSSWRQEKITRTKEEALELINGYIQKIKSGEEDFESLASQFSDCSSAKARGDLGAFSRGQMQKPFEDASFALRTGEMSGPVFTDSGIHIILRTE
Chain of GST-FKBP12 (P62942 whole entry): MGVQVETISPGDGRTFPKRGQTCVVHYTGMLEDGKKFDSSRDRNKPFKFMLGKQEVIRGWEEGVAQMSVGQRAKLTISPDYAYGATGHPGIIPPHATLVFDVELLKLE

Question: Which Ki (GST-Pin1 [1]) does the source give for `CC1=C(/C=C/C(C)=C/C=C/C(C)=C\C(=O)O)C(C)(C)CCC1` [13cRA, (2Z,4E,6E,8E)-3,7-dimethyl-9-(2,6,6-trimethylcyclohexen-1-yl)nona-2,4,6,8-tetraenoic acid] here?
Answer: 1.16 µM

Question: And the “binding to Pin1 in FP assay after longer incubation” value (GST-Pin1 [1]; 24 hours incubation vs 0.5 hours)?
Answer: difference in binding between 13cRA and ATRA disappears after a longer incubation

Question: What about the “Z score in FP-HTS” value (GST-Pin1 [1]; ~8200 compounds screened, competition with pTide) of the same compound?
Answer: lowest Z score

Question: What about the “inhibition of FKBP12” value (GST-FKBP12) of the same compound?
Answer: did not inhibit

Question: And the inhibition of cyclophilin (GST-cyclophilin)?
Answer: did not inhibit

Question: And the “inhibition of PPlase activity of Pin1” value (GST-Pin1 [2])?
Answer: fully inhibited

Question: And the Ki (GST-Pin1 [2]; Cheng-Prusoff equation, read-out: Ki from PPlase assay)?
Answer: 2.37 µM

Question: With `C[C@H]1CCC/C=C/[C@@H]2C[C@H](O)C[C@H]2[C@H](O)/C=C/C(=O)O1` [BFA, brefeldin A] as the compound, how does the Erk phosphorylation [3] read?
Answer: did not obviously affect Erk phosphorylation

Question: What about the “ERGIC structure (ERGIC53 staining)” value ([3]; 30 min) of the same compound?
Answer: ERGIC structures were damaged

Question: Which “condition of treated mice (toxic effects)” value ([4]; mouse, in vivo) does the source give for `O=C(O[C@@H]1Cc2c(O)cc(O)cc2O[C@@H]1c1cc(O)c(O)c(O)c1)c1cc(O)c(O)c(O)c1` [EGCG] here?
Answer: rather sick

Question: And the “PML-RARα in the bone marrow” value ([4]; same regimens)?
Answer: effectively reduced PML-RARα

Question: What about the spleen weights ([4]; same regimens) of the same compound?
Answer: nearly at basal levels

Question: And the APL cell differentiation (NB4 cells)?
Answer: neither Pin1 inhibitors nor Pin1 KD induced APL cell differentiation

Question: And the “Pin1 degradation in NB4 cells” value [5]?
Answer: inhibited Pin1 without degrading it

Question: And the “PML-RARα level in APL cells” value [5]?
Answer: dose-dependently reduced PML-RARα

Question: For `CCOC(=O)CN1C(=O)c2ccc3c4c(ccc(c24)C1=O)C(=O)N(CC(=O)OCC)C3=O` [PiB], which APL cell differentiation (NB4 cells) is on record?
Answer: neither Pin1 inhibitors nor Pin1 KD induced APL cell differentiation

Question: What about the “Pin1 degradation in NB4 cells” value [5] of the same compound?
Answer: inhibited Pin1 without degrading it

Question: What about the “PML-RARα level in APL cells” value [5] of the same compound?
Answer: dose-dependently reduced PML-RARα

Question: With `CCCCCCCOc1cc2c(cc1/C(C)=C/c1ccc(C(=O)O)cc1)C(C)(C)CCS2(=O)=O` [Ro-415253] as the compound, how does the “rescue of NB4 cell proliferation suppressed by ATRA” value (human APL NB4 cells) read?
Answer: unable to rescue NB4 cell proliferation suppressed by ATRA

Question: And the “Pin1 binding in FP assay” value (GST-Pin1 [1])?
Answer: minimal Pin1 binding

Question: What about the “effect on the ability of ATRA to induce Pin1 degradation or inhibit cell growth” value ([6]; breast cancer cells (T47D)) of the same compound?
Answer: no obvious effects

Question: And the “transactivation of RAR downstream target genes” value (RAR)?
Answer: suppresses it

Question: What about the “restoration of ATRA-mediated Pin1 degradation” value ([5]; co-treatment with ATRA) of the same compound?
Answer: unable to restore ATRA-mediated Pin1 degradation

Question: For `COc1cc(C)c(/C=C/C(C)=C/C=C/C(C)=C/C(=O)O)c(C)c1C` [acitretin], which “Pin1 binding in FP assay” value (GST-Pin1 [1]) is on record?
Answer: moderate binding

Question: Which “Pin1 binding in FP assay” value (GST-Pin1 [1]) does the source give for `C=C(c1ccc(C(=O)O)cc1)c1cc2c(cc1C)C(C)(C)CCC2(C)C` [bexarotene] here?
Answer: marginal binding; also recorded: less potent than ATRA

Question: For `CC1=C(/C=C/C(C)=C/C=C/C(C)=C/C(=O)Nc2ccc(O)cc2)C(C)(C)CCC1` [fenretinide], which “Pin1 binding in FP assay” value (GST-Pin1 [1]) is on record?
Answer: less potent than ATRA

Question: For `O=C(O)Cc1c[nH]c2ccccc12` [indo-3-acetic acid], which “Pin1 binding in FP assay” value (GST-Pin1 [1]) is on record?
Answer: neither pravastatin nor indo-3-acetic acid demonstrated any binding

Question: Which “combination effect with ATRA on inhibition of cell proliferation” value ([6]; AU565 or SKBR3 cells) does the source give for `Clc1cccc(C(c2ccc3[nH]cnc3c2)n2ccnc2)c1` (stereo not shown) [liarazole] here?
Answer: generally additive effects with ATRA

Question: Which “Pin1 binding in FP assay” value (GST-Pin1 [1]) does the source give for `CC1=C(/C=C/C(C)=C/C=C/C(C)=C/C=O)C(C)(C)CCC1` [retinal] here?
Answer: totally inactive

Question: For `CC1=C(/C=C/C(C)=C/C=C/C(C)=C/CO)C(C)(C)CCC1` [retinol], which “Pin1 binding in FP assay” value (GST-Pin1 [1]) is on record?
Answer: totally inactive

Question: With `CC(=O)OC/C=C(C)/C=C/C=C(C)/C=C/C1=C(C)CCCC1(C)C` [retinyl acetate] as the compound, how does the “Pin1 binding in FP assay” value (GST-Pin1 [1]) read?
Answer: totally inactive

Question: Which “Pin1 binding in FP assay” value (GST-Pin1 [1]) does the source give for `CC1(C)CCC(C)(C)c2cc(NC(=O)c3ccc(C(=O)O)cc3)ccc21` [tamibarotene] here?
Answer: moderate binding

Question: For “Bth-D-phos.Thr-Pip-Nal ([Bth][d(pT)][Pip][Nal]) [pTide]”, which binding selectivity (GST-Pin1 [1]; Pin1 PPlase domain vs WW domain vs FKBP12) is on record?
Answer: selectively binds Pin1 at its PPlase domain and does not bind to the WW domain of Pin1 or to FKBP12

Question: And the cell permeability [7]?
Answer: low cell permeability
